The results in this text go back to patent publication US8993574B2, “Pyrrole antifungal agents” (F2G Ltd, priority 2008, dated 2015).

Values after ≈ are worked out from the molar mass of the structure shown. Where only a bound is given, the exact number is not on record here.

What all share (format): cell-based
Experiment [1] deals with Aspergillus flavus. The experiment is described as follows: MIC, YAG medium. The conditions noted are these: 24 h at 35° C, MIC banded into grades; for MIC: Aspergillus flavus, 24 h, read-out: MIC grade, A. flavus. In outline: (§1)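 OD 485 nm read-out after 24 h at 35° C; MIC = lowest concentration inhibiting growth >70% vs drug-free control, in mg/L. Inoculum 1−2×10^4 cfu/mL in YAG medium; drug range 50-0.05 mg/L, retested at 0.5-0.0005 mg/L when needed.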

The test system of experiment [2] is Aspergillus niger. The experiment is described as follows: MIC, YAG medium. The conditions noted are these: 24 h at 35° C, MIC banded into grades; for MIC: Aspergillus niger, read-out: MIC grade, A. niger. In outline: as §1
The subject of experiment [3] is Aspergillus fumigatus AF210. Kind of experiment: MIC, YAG medium. To be noted: 24 h at 35° C, MIC banded into grades; for MIC: Aspergillus fumigatus, read-out: MIC grade, A. fumigatus 210. In outline:
as §1

For experiment [4], the system named is Aspergillus terreus AT4. Kind of experiment: MIC, YAG medium. The conditions noted are these: 24 h at 35° C, MIC banded into grades; for MIC: Aspergillus terreus, read-out: MIC grade, A. terreus. Summed up: as §1
Experiment [5] relates to Aspergillus terreus AT49. Kind of experiment: MIC, YAG medium. The conditions noted are these: 24 h at 35° C, MIC banded into grades; for MIC: Aspergillus terreus, read-out: MIC grade, A. terreus 49. Summed up:
as §1

Experiment [6] concerns Aspergillus fumigatus AF293. The experiment is described as follows: MIC, YAG medium. The conditions noted are these: 24 h at 35° C, MIC banded into grades; for MIC: Aspergillus fumigatus, read-out: MIC grade, A. fumigatus. Summed up: as §1
The subject of experiment [7] is Aspergillus flavus. Kind of experiment: MIC, RPMI medium. To be noted: MIC banded into grades; for MIC: Aspergillus flavus, read-out: MIC grade, A. flavus. Summed up:
(§2)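 RPMI (2% glucose, 0.135 M MOPS, pH 7.0) microdilution; drug 50-0.05 mg/L doubling series; inoculum 1−2×10^4 cfu/mL; 24-48 h, 35° C; OD485; MIC = lowest conc. with >80% inhibition vs drug-free control.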

For experiment [8], the system named is Aspergillus niger. The experiment is described as follows: MIC, RPMI medium. The conditions noted are these: MIC banded into grades; for MIC: Aspergillus niger, read-out: MIC grade, A. niger. Summed up:
as §2

In experiment [9] the test system is Aspergillus fumigatus AF210. The experiment is described as follows: MIC, RPMI medium. The conditions noted are these: for MIC: Aspergillus fumigatus, AF210, MIC banded into grades, read-out: MIC grade, A. fumigatus 210. Summed up:
as §2

The subject of experiment [10] is Aspergillus terreus AT4. The experiment is described as follows: MIC, RPMI medium. The conditions noted are these: for MIC: Aspergillus terreus, AT4, MIC banded into grades, read-out: MIC grade, A. terreus. Summed up:
as §2

The test system of experiment [11] is Aspergillus terreus AT49. The experiment is described as follows: MIC, RPMI medium. To be noted: for MIC: Aspergillus terreus, AT49, MIC banded into grades, read-out: MIC grade, A. terreus 49. In outline:
as §2

Experiment [12] relates to Aspergillus fumigatus AF293. The experiment is described as follows: MIC, RPMI medium. To be noted: for MIC: Aspergillus fumigatus, AF293, MIC banded into grades, read-out: MIC grade, A. fumigatus. In outline:
as §2

For `Cc1cc(-c2ccccc2)c(C(=O)C(=O)Nc2cccc3ncccc23)n1C` [Example 32, 2-(1,5-Dimethyl-3-phenyl-1H-pyrrol-2-yl)-2-oxo-N-quinolin-5-yl-acetamide], the MIC was under 1 µg/mL in the experiment with Aspergillus flavus [1]; 1 to 10 µg/mL (≈ 2.71 to 27.1 µM) in the experiment with Aspergillus niger [2]; 1 to 10 µg/mL (≈ 2.71 to 27.1 µM) in experiment [3]; under 1 µg/mL in the experiment on Aspergillus terreus AT4 [4]; under 1 µg/mL with Aspergillus terreus AT49 [5]; 1 to 10 µg/mL (≈ 2.71 to 27.1 µM) in experiment [6]. The MIC was 1 to 10 µg/mL (≈ 2.71 to 27.1 µM) in the experiment on Aspergillus flavus [7]; 1 to 10 µg/mL (≈ 2.71 to 27.1 µM) in the experiment on Aspergillus niger [8]; over 10 µg/mL in [9]; 1 to 10 µg/mL (≈ 2.71 to 27.1 µM) with Aspergillus terreus AT4 [10]; 1 to 10 µg/mL (≈ 2.71 to 27.1 µM) in the experiment with Aspergillus terreus AT49 [11]; over 10 µg/mL in experiment [12].

As to `Cc1cc(-c2ccccc2)c(C(=O)C(=O)Nc2cccc3cccnc23)n1C` [Example 31, 2-(1,5-Dimethyl-3-phenyl-1H-pyrrol-2-yl)-2-oxo-N-quinolin-8-yl-acetamide], the MIC in the experiment on Aspergillus flavus [1] was under 1 µg/mL; in the experiment on Aspergillus niger [2], 1 to 10 µg/mL (≈ 2.71 to 27.1 µM); in [3] it was 1 to 10 µg/mL (≈ 2.71 to 27.1 µM); in the experiment on Aspergillus terreus AT4 [4] it was under 1 µg/mL; in the experiment with Aspergillus terreus AT49 [5], under 1 µg/mL; in experiment [6], 1 to 10 µg/mL (≈ 2.71 to 27.1 µM). The MIC in the experiment with Aspergillus flavus [7] was 1 to 10 µg/mL (≈ 2.71 to 27.1 µM); with Aspergillus niger [8] it was 1 to 10 µg/mL (≈ 2.71 to 27.1 µM); in [9], 1 to 10 µg/mL (≈ 2.71 to 27.1 µM); in the experiment on Aspergillus terreus AT4 [10] it was under 1 µg/mL; with Aspergillus terreus AT49 [11], under 1 µg/mL; in experiment [12] it was 1 to 10 µg/mL (≈ 2.71 to 27.1 µM).

Take `Cc1cc(C)nc(N2CCN(c3ccc(NC(=O)C(=O)c4c(-c5ccccc5)cc(C)n4C(C)C)cc3)CC2)c1` [Example 8, N-{4-[4-(4,6-Dimethyl-pyridin-2-yl)-piperazin-1-yl]-phenyl}-2-(1-isopropyl-5-methyl-3-phenyl-1H-pyrrol-2-yl)-2-oxo-acetamide]: the minimal inhibitory concentration (MIC) in the experiment with Aspergillus flavus [1] is 1 to 10 µg/mL (≈ 1.87 to 18.7 µM); in the experiment on Aspergillus niger [2], under 1 µg/mL; in experiment [3], under 1 µg/mL; with Aspergillus terreus AT4 [4], 1 to 10 µg/mL (≈ 1.87 to 18.7 µM); with Aspergillus terreus AT49 [5], 1 to 10 µg/mL (≈ 1.87 to 18.7 µM); in experiment [6] it was under 1 µg/mL. The MIC in the experiment with Aspergillus flavus [7] was over 10 µg/mL; in the experiment on Aspergillus niger [8] it was 1 to 10 µg/mL (≈ 1.87 to 18.7 µM); in experiment [9], 1 to 10 µg/mL (≈ 1.87 to 18.7 µM); with Aspergillus terreus AT4 [10], 1 to 10 µg/mL (≈ 1.87 to 18.7 µM); in the experiment on Aspergillus terreus AT49 [11], 1 to 10 µg/mL (≈ 1.87 to 18.7 µM); in experiment [12] it was 1 to 10 µg/mL (≈ 1.87 to 18.7 µM).

Regarding `COCCCn1c(C)cc(-c2ccccc2)c1C(=O)C(=O)Nc1ccc(N2CCN(c3cc(C)cc(C)n3)CC2)cc1` [Example 28, N-{4-[4-(4,6-Dimethyl-pyridin-2-yl)-piperazin-1-yl]-phenyl}-2-[1-(3-methoxy-propyl)-5-methyl-3-phenyl-1H-pyrrol-2-yl]-2-oxo-acetamide], the MIC is 1 to 10 µg/mL (≈ 1.77 to 17.7 µM) in the experiment on Aspergillus flavus [1]; under 1 µg/mL in the experiment with Aspergillus niger [2]; under 1 µg/mL in [3]; under 1 µg/mL with Aspergillus terreus AT4 [4]; under 1 µg/mL in the experiment with Aspergillus terreus AT49 [5]; under 1 µg/mL in experiment [6]. Further, the MIC in the experiment on Aspergillus flavus [7] is 1 to 10 µg/mL (≈ 1.77 to 17.7 µM); in the experiment with Aspergillus niger [8] it was under 1 µg/mL; in [9], under 1 µg/mL; in the experiment on Aspergillus terreus AT4 [10], 1 to 10 µg/mL (≈ 1.77 to 17.7 µM); in the experiment on Aspergillus terreus AT49 [11] it was 1 to 10 µg/mL (≈ 1.77 to 17.7 µM); in experiment [12] it was under 1 µg/mL.

With `Cc1cc(C)nc(N2CCN(c3ccc(NC(=O)C(=O)c4c(-c5ccccc5)cc(C)n4C)cc3COCCCN3CCOCC3)CC2)c1` [Example 10, 2-(1,5-Dimethyl-3-phenyl-1H-pyrrol-2-yl)-N-[4-[4-(4,6-dimethyl-pyridin-2-yl)-piperazin-1-yl]-3-(3-morpholin-4-yl-propoxymethyl)-phenyl]-2-oxo-acetamide], the MIC in the experiment with Aspergillus flavus [1] is 1 to 10 µg/mL (≈ 1.5 to 15 µM); with Aspergillus niger [2], over 10 µg/mL; in experiment [3] it was over 10 µg/mL; in the experiment with Aspergillus terreus AT4 [4], over 10 µg/mL; with Aspergillus terreus AT49 [5], 1 to 10 µg/mL (≈ 1.5 to 15 µM); in experiment [6] it was over 10 µg/mL. Moreover, the MIC (in the experiment with Aspergillus flavus [7]; in the experiment with Aspergillus niger [8]; in [9]; in the experiment on Aspergillus terreus AT4 [10]; in the experiment with Aspergillus terreus AT49 [11]; in experiment [12]) was over 10 µg/mL in each case.

On to `Cc1cc(C)nc(N2CCN(c3ccc(NC(=O)C(=O)c4c(C(C)C)cc(C)n4C)cc3)CC2)c1` [Example 14, N-{4-[4-(4,6-Dimethyl-pyridin-2-yl)-piperazin-1-yl]-phenyl}-2-(3-isopropyl-1,5-dimethyl-1H-pyrrol-2-yl)-2-oxo-acetamide], for which the MIC (with Aspergillus flavus [1]; in the experiment on Aspergillus niger [2]; in [3]; with Aspergillus terreus AT4 [4]; in the experiment with Aspergillus terreus AT49 [5]; in experiment [6]) was under 1 µg/mL each time. Besides, the MIC (with Aspergillus flavus [7]; in the experiment on Aspergillus niger [8]; in experiment [9]; with Aspergillus terreus AT4 [10]; in the experiment with Aspergillus terreus AT49 [11]; in [12]) was under 1 µg/mL throughout.

With `COCCn1c(C(C)C)cc(-c2ccccc2)c1C(=O)C(=O)Nc1ccc(N2CCN(c3cc(C)cc(C)n3)CC2)cc1` [Example 78, N-{4-[4-(4,6-Dimethyl-pyridin-2-yl)-piperizin-1-yl]-phenyl}-2-[5-isopropyl-1-(2-methoxy-ethyl)-3-phenyl-1H-pyrrol-2-yl]-2-oxo-acetamide], the “MIC grade, A. flavus” value against Aspergillus flavus [1] and against Aspergillus flavus [7] was 1 (a grade of 1 represents an MIC of greater than 10 mg/L) in each case. Besides, the “MIC grade, A. niger” value against Aspergillus niger [2] and in the experiment on Aspergillus niger [8] was 1 (a grade of 1 represents an MIC of greater than 10 mg/L) in each case. Further, the “MIC grade, A. fumigatus 210” value in experiment [3] and in experiment [9] (MIC banded into grades) was 1 (a grade of 1 represents an MIC of greater than 10 mg/L) in each case. Besides, the “MIC grade, A. terreus” value in the experiment with Aspergillus terreus AT4 [4] and in the experiment on Aspergillus terreus AT4 [10] (MIC banded into grades) was 1 (a grade of 1 represents an MIC of greater than 10 mg/L) in each case. Besides, the “MIC grade, A. terreus 49” value is recorded as 2 (A grade of 2 represents an MIC of from 1 to 10 mg/L) with Aspergillus terreus AT49 [5] and 1 (a grade of 1 represents an MIC of greater than 10 mg/L) against Aspergillus terreus AT49 [11] (MIC banded into grades). The “MIC grade, A. fumigatus” value in [6] and in [12] (MIC banded into grades) was 1 (a grade of 1 represents an MIC of greater than 10 mg/L) throughout.

Regarding `Cc1cc(C)nc(N2CCN(c3ccc(NC(=O)C(=O)c4c(-c5ccccc5)cc(C)n4Cc4ccncc4)cc3)CC2)c1` [Example 102, N-{4-[4-(4,6-Dimethyl-pyridin-2-yl)-piperazin-1-yl]-phenyl}-2-(5-methyl-3-phenyl-1-pyridin-4-ylmethyl-1H-pyrrol-2-yl)-2-oxo-acetamide], the minimal inhibitory concentration (MIC) with Aspergillus flavus [1] is over 10 µg/mL; with Aspergillus niger [2], over 10 µg/mL; in experiment [3], over 10 µg/mL; in the experiment with Aspergillus terreus AT4 [4] it was over 10 µg/mL; with Aspergillus terreus AT49 [5] it was over 10 µg/mL; in experiment [6], 1 to 10 µg/mL (≈ 1.71 to 17.1 µM). The minimal inhibitory concentration (MIC) (with Aspergillus flavus [7]; with Aspergillus niger [8]; in experiment [9]; in the experiment with Aspergillus terreus AT4 [10]; with Aspergillus terreus AT49 [11]; in [12]) was over 10 µg/mL each time.

For `Cc1cc(C)nc(N2CCN(c3ccc(NC(=O)C(=O)c4cccn4-c4ccccc4)cc3)CC2)c1` [Example 2, N-{4-[4-(4,6-Dimethyl-pyridin-2-yl)-piperazin-1-yl]-phenyl}-2-oxo-2-(1-phenyl-1H-pyrrol-2-yl)-acetamide], the MIC was under 1 µg/mL in the experiment on Aspergillus flavus [1]; over 10 µg/mL with Aspergillus niger [2]; 1 to 10 µg/mL (≈ 2.09 to 20.9 µM) in experiment [3]; under 1 µg/mL with Aspergillus terreus AT4 [4]; under 1 µg/mL with Aspergillus terreus AT49 [5]; 1 to 10 µg/mL (≈ 2.09 to 20.9 µM) in [6]. Also, the minimum inhibitory concentration (MIC) (in the experiment on Aspergillus flavus [7]; in the experiment on Aspergillus niger [8]; in experiment [9]; in the experiment on Aspergillus terreus AT4 [10]; with Aspergillus terreus AT49 [11]; in experiment [12]) was over 10 µg/mL in each case.
